Test results: patent US20130131321A1, “LIGANDS FOR ANTIBODY AND Fc-FUSION PROTEIN PURIFICATION BY AFFINITY CHROMATOGRAPHY” (GRAFFINITY PHARMACEUTICALS GMBH, priority 2010, published 2013)

Assays:
[1] = system: human poly-IgG (h-poly-IgG); test: Microtiter plate chromatography of resins, human poly-IgG (bound, yield); assay type: binding
[2] = target: T1, Bevacizumab (Homo sapiens, UniProt P01857); test: Microtiter plate chromatography of resins, Bevacizumab whole IgG (bound, yield, selectivity); assay type: binding, humanized
T1 construct: fused on or other part: humanised anti-VEGF-A VH domain N-terminal of the gamma-1 constant region (engineered, no UniProt entry)

[3] = system: Palivizumab; test: Microtiter plate chromatography of resins, Palivizumab (bound, yield); assay type: binding, humanized
[4] = system: Tocilizumab; test: Microtiter plate chromatography of resins, Tocilizumab (bound, yield); assay type: binding, humanized
[5] = system: host cell proteins (HCP); test: Microtiter plate chromatography of resins, host cell proteins (bound); assay type: binding, CHO; conditions: host cell proteins
[6] = target: T1, Bevacizumab; test: Langmuir isotherms by batch adsorption; assay type: binding, humanized; conditions: Bevacizumab in PBS pH 7.3, 25° C., at least 3 h; for Kd: read-out: Kd (dissociation constant, Langmuir isotherm)
Experimental: Experiments were performed with Bevacizumab as antibody. Parameters of Langmuir isotherms for purified antibody were determined by batch adsorption experiments in 96-well microtiter plates. In each well, 10 μl of sorbent slurry (50% v/v) were mixed with 100 μl of protein solution. Initial concentrations varied from 0.05-5 mg ml^−1 in phosphate-buffered saline (0.15 M NaCl, 20 mM phosphate buffer, pH 7.3; PBS). Reactions were agitated vigorously at 25° C. for at least 3 h. Afterwards, antibody concentration in the supernatents were measured by Bradford assay.
Parameters of Langmuir isotherms, i.e. dissociation constants Kd and maximum capacities qm, were determined from the measured concentrations in supernatants. Parameters were estimated by numerical fitting of the model equation derived by Chase (4).

[7] = system: Bevacizumab Fab fragment; test: Microtiter plate chromatography of resins, Bevacizumab Fab fragment (bound); assay type: binding, humanized; conditions: for Bevacizumab Fab Bound (%): Bevacizumab Fab fragment
Experimental: (§1) Resins were assessed in packed mode by microtiter plate chromatography. For each column, approximately 30 μl of resin were transferred to a 384-well filter plate and sealed with appropriate top frits.
(§2) Columns were equilibrated with 6.7 column volumes (cv) of phosphate buffered saline (0.15 M NaCl, 20 mM sodium phosphate, pH 7.3; PBS) prior to injection. Either 3.3 cv of whole IgGs dissolved at 0.75 mg ml^−1, Fab or Fc fragments dissolved at 0.25 mg ml^−1 (all three in PBS) or host cell proteins (HCP) were injected onto columns. Antibody fragments of Bevacizumab (Fab and Fc) were prepared by cleavage of whole IgG with papain protease (3) according to the protocol of the manufacturer. […] Volumes transferred were spun through columns at 50 g for 1-2 min. During injection of samples, acceleration was reduced to 10 g and centrifugation time increased to 5-10 min. Effluent fractions were collected in 384-well plates and concentrations of protein analyzed by Bradford assay. Protein masses mi, mft and me (see below) were calculated as the product of fraction volume and measured protein concentration.
(§3) The fraction of ‘bound’ protein was calculated as the difference between the total mass of protein injected mi and the mass of protein detected in the flowthrough mft, divided by the total mass of protein injected.
(§4) the fraction of ‘bound’ protein and the ‘yield’ of protein were calculated for each resin based on data for whole IgG-antibodies. In the case of Bevacizumab fragments and host cell proteins, only the fraction of ‘bound’ protein is given. Selectivity of resins was calculated from data for Bevacizumab Whole IgG and host cell proteins. Due to limited experimental precision, selectivity was truncated beyond values of 10.

[8] = system: Bevacizumab Fc fragment; test: Microtiter plate chromatography of resins, Bevacizumab Fc fragment (bound); assay type: binding, humanized; conditions: for Bevacizumab Fc Bound (%): Bevacizumab Fc fragment
Experimental: as §1, §2, §3, §4

[9] = system: Bevacizumab; test: Microtiter plate chromatography of resins, Bevacizumab whole IgG (bound, yield, selectivity); assay type: binding, humanized
[10] = system: host cell proteins (HCP); test: Microtiter plate chromatography of resins, host cell proteins (bound); assay type: binding, CHO; conditions: estimate predicted on the basis of close analogs L49 and L50
[11] = fraction of whole IgG Bevacizumab bound to resin
[12] = mass of whole IgG Bevacizumab eluted / mass injected
[13] = estimate predicted on the basis of close analogs L49 and L50

Bevacizumab IgG Bound (%) [2, 13] [%]	Bevacizumab IgG Yield (%) [2, 13] [%]	Compound	h-poly-IgG Bound (%) [1] [%]	h-poly-IgG Yield (%) [1] [%]	Bevacizumab IgG Bound (%) [2, 11] [%]	Bevacizumab IgG Yield (%) [2, 12] [%]	Palivizumab Bound (%) [3] [%]	Palivizumab Yield (%) [3] [%]	Tocilizumab Bound (%) [4] [%]	Tocilizumab Yield (%) [4] [%]	HCP Bound (%) [5] [%]	qm (maximum capacity, Langmuir isotherm) [6] [mg per ml resin]	Bevacizumab Fab Bound (%) [7] [%]	Bevacizumab Fc Bound (%) [8] [%]	Selectivity [9]	Kd [6] [µM]	binding of Bevacizumab Fab-fragment ([7]; Fab 0.25 mg ml^-1 in PBS)	binding of Bevacizumab Fc-fragment ([8]; Fc 0.25 mg ml^-1 in PBS)	HCP Bound (%) [10] [%]
–	–	Cn1nc(C(=O)Nc2cccc(C(=O)NCCCN)c2)cc1-c1ccco1 [Ligand L17, 3-[5-(2-Furyl)-1-methylpyrazol-3-yl]carboxamidobenzoic acid N-(3-aminopropyl)amide]	91	87	100	94	81	70	97	89	36	26	–	–	–	–	–	–	–
–	–	COc1ccc(NC(=O)c2cc(-c3ccsc3)n(C)n2)cc1C(=O)NCCCN [Ligand L8, 2-Methoxy-5-[1-methyl-5-(3-thienyl)pyrazol-3-yl]carboxamidobenzoic acid N-(3-aminopropyl)amide]	100	86	100	96	100	89	100	97	44	–	82	99	2.3	–	–	–	–
–	–	COc1ccc(NC(=O)c2cncc(-c3cccs3)c2)cc1C(=O)NCCCN [Ligand L5, 2-Methoxy-5-[3-(2-thienyl)pyridin-5-yl]carboxamidobenzoic acid N-(3-aminopropyl)amide]	97	69	100	96	71	72	100	80	48	–	77	84	2.0	–	–	–	–
–	–	COc1ccc(NC(=O)c2cncc(-c3ccoc3)c2)cc1C(=O)NCCCN [Ligand L22, 5-[3-(3-Furyl)pyridin-5-yl]carboxamido-2-methoxybenzoic acid N-(3-aminopropyl)amide]	63	58	100	92	40	34	62	58	33	29	–	–	–	373	–	–	–
–	–	C#Cc1cncc(C(=O)Nc2ccc(OC)c(C(=O)NCCCN)c2)c1 [Ligand L24, 5-(3-Ethynylpyridin-5-yl)carboxamido-2-methoxybenzoic acid N-(3-aminopropyl)amide]	45	47	100	97	24	21	41	40	29	33	–	–	–	596	–	–	–
–	–	COc1ccc(NC(=O)c2cncc(-c3ccco3)c2)cc1C(=O)NCCCN [Ligand L13, 5-[3-(2-Furyl)pyridin-5-yl]carboxamido-2-methoxybenzoic acid N-(3-aminopropyl)amide]	76	75	100	94	65	58	91	79	38	37	9	64	–	411	–	–	–
–	–	COc1ccc(NC(=O)c2nn(C)c3ccccc23)cc1C(=O)NCCCN [Ligand L27, 2-Methoxy-5-(1-methylindazol-3-yl)carboxamidobenzoic acid N-(3-aminopropyl)amide]	98	89	100	94	100	94	100	104	35	33	6	96	–	–	not the Fab-fragment	bound the Fc-fragment	–
–	–	COc1ccc(NC(=O)c2cc(-c3cccs3)n(C)n2)cc1C(=O)NCCCN [Ligand L6, 2-Methoxy-5-[1-methyl-5-(2-thienyl)pyrazol-3-yl]carboxamidobenzoic acid N-(3-aminopropyl)amide]	94	100	100	100	98	100	100	102	54	–	79	100	2.0	–	–	–	–
–	–	COc1ccc(NC(=O)c2n[nH]c3ccc(Cl)cc23)cc1C(=O)NCCCN [Ligand L4, 5-(5-Chloro-1H-indazol-3-yl)carboxamido-2-methoxybenzoic acid N-(3-aminopropyl)amide]	100	83	100	98	100	97	100	93	57	–	38	100	1.8	–	–	–	–
–	–	COc1ccc(NC(=O)c2cncc(C3CC3)c2)cc1C(=O)NCCCN [Ligand L23, 5-(3-Cyclopropylpyridin-5-yl)carboxamido-2-methoxybenzoic acid N-(3-aminopropyl)amide]	75	74	100	98	61	57	86	85	32	33	12	67	–	–	–	–	–
>95	>85	COc1ccc(NC(=O)c2cn3ccsc3n2)cc1C(=O)NCCOCC(=O)NCCCC[C@H](NC(=O)COCCNC(=O)c1cc(NC(=O)c2cn3ccsc3n2)ccc1OC)C(=O)NCCCN [Ligand L53, (S)-2,6-Bis{5-[5-(Imidazo[2,1-b]thiazol-6-ylcarboxamido)-2-methoxyphenylcarboxamido]-3-oxapentanoylamido}hexanoic acid (3-amino-1-propyl)amide]	–	–	–	–	–	–	>90	>90	–	–	–	–	–	–	–	–	<20
